From US20110020517A1, “TASTE MODIFYING PRODUCT” (priority 2008, published 2011)

Tests used:
[1] = Evaluation for umami/kokumi taste and mouthfeel by a team of 8 trained panelists, in 0.3% aqueous NaCl solution; settings: 10 ppm in 0.3% aqueous NaCl solution
Protocol: Liquid 2-(3-phenylpropyl)pyridine was obtained from R.C. Treatt & Co Ltd, UK (reference SA362100/2). It was then diluted into propylene glycol solvent to provide a 10% solution of the 2-(3-phenylpropyl)pyridine, the resulting solution then being added to a 0.3% aqueous NaCl solution to provide a concentration of 2-(3-phenylpropyl)pyridine of 10 ppm.
The sample was evaluated for umami/kokumi taste and mouthfeel by a team of 8 trained panelists.

[2] = prior art, U.S. Pat. No. 5,298,486 column 2 lines 24 to 33; cited from earlier work

SMILES	Description: Mouthfeel [1]	Description: Taste [1]	Kokumi/Umami taste intensity ([1]; scale of 0 to 10, 0 = no Kokumi/Umami effect, 10 = very intense effect)	flavor note [2]
c1ccc(CCCc2ccccn2)cc1 [2-(3-phenylpropyl)pyridine]	Mouthfeel: sweet,	Taste: brown, fatty,	7	
CCCCCCCc1cccnc1 [3-heptylpyridine]				fatty, metallic and fishy
CCCCCCc1cccnc1 [3-hexylpyridine]				fruity
